Data: the NIST ThermoML archive (doi:10.1021/acs.jced.8b00387)

Experiment: xn = mol fraction of the nth substance listed
Conditions: for viscosity / mass density / speed of sound: 102 kPa, Liquid; for viscosity: Concentric cylinders viscometry; for mass density: Vibrating tube method; for speed of sound: Frequency=3 MHz, Single path-length method; for surface tension liquid-gas: Pendant drop shape

CC(CC(C)(C)C)CC(C)(C)CC(C)(C)C (stereo not given) [2,2,4,4,6,8,8-heptamethylnonane] + CCCCc1ccccc1
Conditions	mass density [kg/m3]	speed of sound [m/s]	surface tension liquid-gas [mN/m]	viscosity [mPa·s]
253.15 K, x2 = 0.1007	815.9	–	–	11.06
253.15 K, x2 = 0.2007	820.7	–	–	8.94
253.15 K, x2 = 0.3	826.1	–	–	7.29
253.15 K, x2 = 0.3999	832.1	–	–	5.97
253.15 K, x2 = 0.4998	838.8	–	–	4.93
253.15 K, x2 = 0.5997	846.5	–	–	4.12
253.15 K, x2 = 0.7001	855.7	–	–	3.46
253.15 K, x2 = 0.7998	865.8	–	–	2.96
253.15 K, x2 = 0.8992	878.5	–	–	2.59
288.15 K, x2 = 0.1007	791.93	1308.2	–	–
288.15 K, x2 = 0.2007	796.54	1311.6	–	–
288.15 K, x2 = 0.3	801.59	1315.6	–	–
288.15 K, x2 = 0.3999	807.31	1320.4	–	–
288.15 K, x2 = 0.4998	813.73	1325.5	–	–
288.15 K, x2 = 0.5997	820.89	1331.9	–	–
288.15 K, x2 = 0.7001	829.45	1339.5	–	–
288.15 K, x2 = 0.7998	839.17	1348.9	–	–
288.15 K, x2 = 0.8992	850.51	1359.8	–	–
293.15 K, x2 = 0.1007	788.54	1289.3	–	3.22
293.15 K, x2 = 0.2007	793.11	1292.7	–	2.77
293.15 K, x2 = 0.3	798.11	1296.6	–	2.41
293.15 K, x2 = 0.3999	803.78	1301.1	–	2.09
293.15 K, x2 = 0.4998	810.17	1306.3	–	1.83
293.15 K, x2 = 0.5997	817.24	1312.5	–	1.6
293.15 K, x2 = 0.7001	825.74	1320.1	–	1.41
293.15 K, x2 = 0.7998	835.37	1329.1	–	1.29
293.15 K, x2 = 0.8992	846.62	1340	–	1.15
295 K, x2 = 0.1007	–	–	24.3	–
295 K, x2 = 0.2007	–	–	24.6	–
295 K, x2 = 0.3	–	–	24.8	–
295 K, x2 = 0.3999	–	–	25.1	–
295 K, x2 = 0.4998	–	–	25.5	–
295 K, x2 = 0.5997	–	–	26	–
295 K, x2 = 0.7001	–	–	26.2	–
295 K, x2 = 0.7998	–	–	26.7	–
295 K, x2 = 0.8992	–	–	27.3	–
303.15 K, x2 = 0.1007	781.75	1251.9	–	2.58
303.15 K, x2 = 0.2007	786.24	1255.2	–	2.25
303.15 K, x2 = 0.3	791.16	1258.9	–	1.97
303.15 K, x2 = 0.3999	796.72	1263.3	–	1.73
303.15 K, x2 = 0.4998	803	1268.3	–	1.55
303.15 K, x2 = 0.5997	809.95	1274.4	–	1.37
303.15 K, x2 = 0.7001	818.29	1281.9	–	1.21
303.15 K, x2 = 0.7998	827.77	1290.3	–	1.1
303.15 K, x2 = 0.8992	838.82	1300.9	–	0.993
313.15 K, x2 = 0.1007	774.96	1215.2	–	2.11
313.15 K, x2 = 0.2007	779.36	1218.4	–	1.86
313.15 K, x2 = 0.3	784.19	1222	–	1.64
313.15 K, x2 = 0.3999	789.65	1226.2	–	1.46
313.15 K, x2 = 0.4998	795.81	1231.1	–	1.3
313.15 K, x2 = 0.5997	802.64	1237	–	1.16
313.15 K, x2 = 0.7001	810.83	1244.2	–	1.03
313.15 K, x2 = 0.7998	820.15	1252.3	–	0.957
313.15 K, x2 = 0.8992	831.01	1262.7	–	0.855
323.15 K, x2 = 0.1007	768.15	1179.3	–	1.76
323.15 K, x2 = 0.2007	772.47	1182.3	–	1.56
323.15 K, x2 = 0.3	777.21	1185.8	–	1.39
323.15 K, x2 = 0.3999	782.56	1189.8	–	1.27
323.15 K, x2 = 0.4998	788.61	1194.5	–	1.14
323.15 K, x2 = 0.5997	795.31	1200.2	–	1.03
323.15 K, x2 = 0.7001	803.34	1207.2	–	0.92
323.15 K, x2 = 0.7998	812.49	1215.1	–	0.831
323.15 K, x2 = 0.8992	823.15	1225.2	–	0.754
333.15 K, x2 = 0.1007	761.33	1144.1	–	1.49
333.15 K, x2 = 0.2007	765.57	1147	–	1.33
333.15 K, x2 = 0.3	770.2	1150.3	–	1.2
333.15 K, x2 = 0.3999	775.45	1154.1	–	1.1
333.15 K, x2 = 0.4998	781.38	1158.8	–	1
333.15 K, x2 = 0.5997	787.95	1164.2	–	0.9
333.15 K, x2 = 0.7001	795.82	1170.9	–	0.812
333.15 K, x2 = 0.7998	804.8	1178.9	–	0.736
333.15 K, x2 = 0.8992	815.26	1188.7	–	0.67

CC(CC(C)(C)C)CC(C)(C)C [2,2,4,6,6-pentamethylheptane] + CCCCCCc1ccccc1
Conditions	mass density [kg/m3]	speed of sound [m/s]	surface tension liquid-gas [mN/m]	viscosity [mPa·s]
253.15 K, x2 = 0.1	784.1	–	–	3
253.15 K, x2 = 0.2065	795	–	–	3.03
253.15 K, x2 = 0.3009	804.9	–	–	3.08
253.15 K, x2 = 0.3968	815.2	–	–	3.19
253.15 K, x2 = 0.5001	826.8	–	–	–
253.15 K, x2 = 0.5004	–	–	–	3.31
253.15 K, x2 = 0.6	838.5	–	–	3.47
253.15 K, x2 = 0.6998	850.5	–	–	3.7
253.15 K, x2 = 0.7997	863.5	–	–	3.93
253.15 K, x2 = 0.8999	875.7	–	–	4.2
288.15 K, x2 = 0.1	758.47	1238.9	–	–
288.15 K, x2 = 0.2065	769.17	1255.2	–	–
288.15 K, x2 = 0.3009	778.97	1270.3	–	–
288.15 K, x2 = 0.3968	789.42	1286.2	–	–
288.15 K, x2 = 0.5001	800.56	–	–	–
288.15 K, x2 = 0.5004	–	1302.9	–	–
288.15 K, x2 = 0.6	812.08	1320.1	–	–
288.15 K, x2 = 0.6998	824	1338	–	–
288.15 K, x2 = 0.7997	836.31	1356.4	–	–
288.15 K, x2 = 0.8999	849.13	1375.5	–	–
293.15 K, x2 = 0.1	754.83	1219	–	1.31
293.15 K, x2 = 0.2065	765.51	1235.7	–	1.31
293.15 K, x2 = 0.3009	775.3	1250.6	–	1.31
293.15 K, x2 = 0.3968	785.5	1266	–	1.35
293.15 K, x2 = 0.5001	796.87	–	–	–
293.15 K, x2 = 0.5004	–	1283.3	–	1.36
293.15 K, x2 = 0.6	808.37	1300.6	–	1.4
293.15 K, x2 = 0.6998	820.27	1318.6	–	1.46
293.15 K, x2 = 0.7997	832.57	1337.1	–	1.51
293.15 K, x2 = 0.8999	845.36	1356.2	–	1.56
294 K, x2 = 0.1	–	–	21.9	–
294 K, x2 = 0.2065	–	–	22.5	–
294 K, x2 = 0.3009	–	–	23.1	–
294 K, x2 = 0.3968	–	–	23.5	–
294 K, x2 = 0.5001	–	–	24.1	–
294 K, x2 = 0.6	–	–	24.7	–
294 K, x2 = 0.6998	–	–	25.5	–
294 K, x2 = 0.7997	–	–	26.5	–
294 K, x2 = 0.8999	–	–	27.7	–
303.15 K, x2 = 0.1	747.53	1180	–	1.12
303.15 K, x2 = 0.2065	758.19	1197.2	–	1.13
303.15 K, x2 = 0.3009	767.96	1211.8	–	1.14
303.15 K, x2 = 0.3968	778.14	1227.4	–	1.15
303.15 K, x2 = 0.5001	789.48	–	–	–
303.15 K, x2 = 0.5004	–	1244.8	–	1.17
303.15 K, x2 = 0.6	800.94	1262.2	–	1.2
303.15 K, x2 = 0.6998	812.8	1280.3	–	1.25
303.15 K, x2 = 0.7997	825.06	1299	–	1.29
303.15 K, x2 = 0.8999	837.82	1318.2	–	1.33
313.15 K, x2 = 0.1	740.2	1141.9	–	0.957
313.15 K, x2 = 0.2065	750.84	1159.3	–	0.962
313.15 K, x2 = 0.3009	760.6	1174	–	0.967
313.15 K, x2 = 0.3968	770.75	1189.7	–	0.979
313.15 K, x2 = 0.5001	782.06	–	–	–
313.15 K, x2 = 0.5004	–	1207.2	–	1
313.15 K, x2 = 0.6	793.5	1224.7	–	1.02
313.15 K, x2 = 0.6998	805.33	1243	–	1.06
313.15 K, x2 = 0.7997	817.55	1261.7	–	1.09
313.15 K, x2 = 0.8999	830.26	1281	–	1.12
323.15 K, x2 = 0.1	732.84	1104.7	–	0.848
323.15 K, x2 = 0.2065	743.45	1122.2	–	0.853
323.15 K, x2 = 0.3009	753.21	1136.9	–	0.861
323.15 K, x2 = 0.3968	763.34	1152.8	–	0.873
323.15 K, x2 = 0.5001	774.63	–	–	–
323.15 K, x2 = 0.5004	–	1170.4	–	0.889
323.15 K, x2 = 0.6	786.03	1188.1	–	0.911
323.15 K, x2 = 0.6998	797.82	1206.4	–	0.943
323.15 K, x2 = 0.7997	810.01	1225.2	–	0.964
323.15 K, x2 = 0.8999	822.68	1244.6	–	0.992
333.15 K, x2 = 0.1	725.44	1068.5	–	0.749
333.15 K, x2 = 0.2065	736.04	1085.8	–	0.753
333.15 K, x2 = 0.3009	745.77	1101	–	0.758
333.15 K, x2 = 0.3968	755.89	1117	–	0.768
333.15 K, x2 = 0.5001	767.15	–	–	–
333.15 K, x2 = 0.5004	–	1134.6	–	0.783
333.15 K, x2 = 0.6	778.54	1152.5	–	0.803
333.15 K, x2 = 0.6998	790.29	1170.8	–	0.828
333.15 K, x2 = 0.7997	802.45	1189.6	–	0.844
333.15 K, x2 = 0.8999	815.08	1209.1	–	0.87
